{"source": "ChEMBL document CHEMBL4387741", "about": "“Optimization of novel reversible Bruton's tyrosine kinase inhibitors identified using Tethering-fragment-based screens” (Bioorg Med Chem, 2019)", "key": {"[1]": {"biological_target": "Serine/threonine-protein kinase Nek2 (Homo sapiens) (UniProt P51955)", "test": "Inhibition of wild-type human partial length NEK2 (M1 to K309 residues) expressed in bacterial expression system at 1 uM by Kinomescan method relative to control"}, "[2]": {"biological_target": "Dual specificity mitogen-activated protein kinase kinase 7 (Homo sapiens) (UniProt O14733)", "sequence (O14733 whole entry, the tested form may be a part)": "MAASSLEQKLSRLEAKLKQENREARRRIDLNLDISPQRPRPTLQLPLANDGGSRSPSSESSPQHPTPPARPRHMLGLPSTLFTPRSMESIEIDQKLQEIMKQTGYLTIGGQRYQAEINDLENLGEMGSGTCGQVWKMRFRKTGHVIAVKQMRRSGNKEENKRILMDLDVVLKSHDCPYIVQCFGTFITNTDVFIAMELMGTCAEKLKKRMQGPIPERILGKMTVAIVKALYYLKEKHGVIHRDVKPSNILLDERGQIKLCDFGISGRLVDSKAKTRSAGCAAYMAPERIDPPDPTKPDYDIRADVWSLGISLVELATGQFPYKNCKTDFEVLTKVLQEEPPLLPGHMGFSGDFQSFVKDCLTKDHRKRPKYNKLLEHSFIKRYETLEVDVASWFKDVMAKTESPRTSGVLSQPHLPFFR", "test": "Inhibition of wild-type human full length MKK7 (M1 to R419 residues) expressed in mammalian expression system at 1 uM by Kinomescan method relative to control"}, "[3]": {"biological_target": "Dual specificity tyrosine-phosphorylation-regulated kinase 1B (Homo sapiens) (UniProt Q9Y463)", "test": "Inhibition of wild-type human full length DYRK1B (M1 to S629 residues) expressed in bacterial expression system at 1 uM by Kinomescan method relative to control"}, "[4]": {"biological_target": "Cyclin-dependent kinase 11A (Homo sapiens) (UniProt Q9UQ88)", "sequence (Q9UQ88 whole entry, the tested form may be a part)": "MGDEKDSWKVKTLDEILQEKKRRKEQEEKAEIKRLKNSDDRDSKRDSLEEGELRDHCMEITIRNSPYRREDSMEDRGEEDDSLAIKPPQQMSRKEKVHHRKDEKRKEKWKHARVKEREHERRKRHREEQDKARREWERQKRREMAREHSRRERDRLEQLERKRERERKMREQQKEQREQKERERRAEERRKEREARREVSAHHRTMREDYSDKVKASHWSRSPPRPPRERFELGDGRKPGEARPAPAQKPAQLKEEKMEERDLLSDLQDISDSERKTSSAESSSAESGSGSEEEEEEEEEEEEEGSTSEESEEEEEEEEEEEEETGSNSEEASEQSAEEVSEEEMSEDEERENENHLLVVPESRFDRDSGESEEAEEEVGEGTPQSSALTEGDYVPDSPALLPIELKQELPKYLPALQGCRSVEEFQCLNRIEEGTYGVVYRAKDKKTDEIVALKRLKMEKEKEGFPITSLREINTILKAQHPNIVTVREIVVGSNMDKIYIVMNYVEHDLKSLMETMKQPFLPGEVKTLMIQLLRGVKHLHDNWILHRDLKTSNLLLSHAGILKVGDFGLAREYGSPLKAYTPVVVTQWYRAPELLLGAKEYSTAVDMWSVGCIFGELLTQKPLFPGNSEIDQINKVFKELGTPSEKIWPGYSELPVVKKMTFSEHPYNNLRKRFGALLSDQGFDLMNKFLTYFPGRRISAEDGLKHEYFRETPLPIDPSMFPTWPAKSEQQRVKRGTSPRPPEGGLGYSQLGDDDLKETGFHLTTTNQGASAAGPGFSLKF", "test": "Inhibition of wild-type human partial length CDC2L2 (D391 to K730 residues) expressed in bacterial expression system at 1 uM by Kinomescan method relative to control"}, "[5]": {"biological_target": "Receptor-interacting serine/threonine-protein kinase 1 (Homo sapiens) (UniProt Q13546)", "sequence (Q13546 whole entry, the tested form may be a part)": "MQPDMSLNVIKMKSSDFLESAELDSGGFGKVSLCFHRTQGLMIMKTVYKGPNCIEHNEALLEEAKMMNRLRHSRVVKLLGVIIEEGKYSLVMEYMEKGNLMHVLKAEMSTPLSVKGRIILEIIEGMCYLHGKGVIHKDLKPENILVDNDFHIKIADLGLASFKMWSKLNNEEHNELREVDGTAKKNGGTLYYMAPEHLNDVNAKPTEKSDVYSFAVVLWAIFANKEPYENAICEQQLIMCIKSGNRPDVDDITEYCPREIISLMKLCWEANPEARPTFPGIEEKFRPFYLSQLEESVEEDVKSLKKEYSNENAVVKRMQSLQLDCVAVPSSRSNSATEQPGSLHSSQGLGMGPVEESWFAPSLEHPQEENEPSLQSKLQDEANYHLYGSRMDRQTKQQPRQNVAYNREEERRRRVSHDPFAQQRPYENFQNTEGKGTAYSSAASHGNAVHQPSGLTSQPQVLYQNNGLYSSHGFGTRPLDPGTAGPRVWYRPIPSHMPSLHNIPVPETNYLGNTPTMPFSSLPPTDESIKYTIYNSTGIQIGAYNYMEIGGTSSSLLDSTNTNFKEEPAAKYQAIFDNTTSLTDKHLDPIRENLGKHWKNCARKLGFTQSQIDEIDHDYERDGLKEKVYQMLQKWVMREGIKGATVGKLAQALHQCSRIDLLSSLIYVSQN", "test": "Inhibition of wild-type human partial length RIPK1 (M1 to K305 residues) expressed in bacterial expression system at 1 uM by Kinomescan method relative to control"}, "[6]": {"system": "Epidermal growth factor receptor (Homo sapiens), P00533 [UNDEFINED MUTATION]", "test": "Inhibition of human partial length EGFR L747-T751del/Sins mutant expressed in bacterial expression system at 1 uM by Kinomescan method relative to control"}, "[7]": {"biological_target": "Serine/threonine-protein kinase RIO1 (Homo sapiens) (UniProt Q9BRS2)", "sequence (Q9BRS2 whole entry, the tested form may be a part)": "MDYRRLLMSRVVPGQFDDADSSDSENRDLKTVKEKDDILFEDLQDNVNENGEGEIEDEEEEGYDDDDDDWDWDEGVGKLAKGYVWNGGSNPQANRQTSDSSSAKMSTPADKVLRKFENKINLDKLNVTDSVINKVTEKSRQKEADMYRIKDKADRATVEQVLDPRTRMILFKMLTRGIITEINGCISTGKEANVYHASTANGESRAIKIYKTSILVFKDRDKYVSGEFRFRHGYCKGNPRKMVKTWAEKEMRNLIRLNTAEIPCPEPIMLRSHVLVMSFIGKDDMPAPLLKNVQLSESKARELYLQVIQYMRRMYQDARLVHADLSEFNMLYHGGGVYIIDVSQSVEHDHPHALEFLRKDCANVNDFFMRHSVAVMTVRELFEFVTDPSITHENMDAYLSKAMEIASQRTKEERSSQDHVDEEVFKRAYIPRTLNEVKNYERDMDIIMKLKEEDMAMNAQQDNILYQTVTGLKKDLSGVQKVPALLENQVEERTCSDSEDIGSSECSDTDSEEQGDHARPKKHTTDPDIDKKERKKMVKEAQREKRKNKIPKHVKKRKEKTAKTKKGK", "test": "Inhibition of wild-type human full length RIOK1 (M1 to K568 residues) expressed in bacterial expression system at 1 uM by Kinomescan method relative to control"}, "[8]": {"biological_target": "Serine/threonine-protein kinase mTOR (Homo sapiens) (UniProt P42345)", "test": "Inhibition of wild-type human partial length MTOR (L1382 to W2549 residues) expressed in mammalian expression system at 1 uM by Kinomescan method relative to control"}, "[9]": {"system": "Receptor-type tyrosine-protein kinase FLT3 (Homo sapiens), P36888 [R834Q]", "test": "Inhibition of human partial length FLT3 R834Q mutant (V592 to Y969 residues) expressed in mammalian expression system at 1 uM by Kinomescan method relative to control"}, "[10]": {"test": "AUC (infinity) in po dosed Sprague-Dawley rat using amorphous solid form of compound", "assay_type": "ADME, organism-based", "set-up": "route oral, time infinity", "conditions": "in vivo"}, "[11]": {"biological_target": "MAP kinase-interacting serine/threonine-protein kinase 2 (Homo sapiens) (UniProt Q9HBH9)", "test": "Inhibition of wild-type human partial length MKNK2 (G63 to S388 residues) expressed in mammalian expression system at 1 uM by Kinomescan method relative to control"}, "[12]": {"biological_target": "Serine/threonine-protein kinase 36 (Homo sapiens) (UniProt Q9NRP7)", "sequence (Q9NRP7 whole entry, the tested form may be a part)": "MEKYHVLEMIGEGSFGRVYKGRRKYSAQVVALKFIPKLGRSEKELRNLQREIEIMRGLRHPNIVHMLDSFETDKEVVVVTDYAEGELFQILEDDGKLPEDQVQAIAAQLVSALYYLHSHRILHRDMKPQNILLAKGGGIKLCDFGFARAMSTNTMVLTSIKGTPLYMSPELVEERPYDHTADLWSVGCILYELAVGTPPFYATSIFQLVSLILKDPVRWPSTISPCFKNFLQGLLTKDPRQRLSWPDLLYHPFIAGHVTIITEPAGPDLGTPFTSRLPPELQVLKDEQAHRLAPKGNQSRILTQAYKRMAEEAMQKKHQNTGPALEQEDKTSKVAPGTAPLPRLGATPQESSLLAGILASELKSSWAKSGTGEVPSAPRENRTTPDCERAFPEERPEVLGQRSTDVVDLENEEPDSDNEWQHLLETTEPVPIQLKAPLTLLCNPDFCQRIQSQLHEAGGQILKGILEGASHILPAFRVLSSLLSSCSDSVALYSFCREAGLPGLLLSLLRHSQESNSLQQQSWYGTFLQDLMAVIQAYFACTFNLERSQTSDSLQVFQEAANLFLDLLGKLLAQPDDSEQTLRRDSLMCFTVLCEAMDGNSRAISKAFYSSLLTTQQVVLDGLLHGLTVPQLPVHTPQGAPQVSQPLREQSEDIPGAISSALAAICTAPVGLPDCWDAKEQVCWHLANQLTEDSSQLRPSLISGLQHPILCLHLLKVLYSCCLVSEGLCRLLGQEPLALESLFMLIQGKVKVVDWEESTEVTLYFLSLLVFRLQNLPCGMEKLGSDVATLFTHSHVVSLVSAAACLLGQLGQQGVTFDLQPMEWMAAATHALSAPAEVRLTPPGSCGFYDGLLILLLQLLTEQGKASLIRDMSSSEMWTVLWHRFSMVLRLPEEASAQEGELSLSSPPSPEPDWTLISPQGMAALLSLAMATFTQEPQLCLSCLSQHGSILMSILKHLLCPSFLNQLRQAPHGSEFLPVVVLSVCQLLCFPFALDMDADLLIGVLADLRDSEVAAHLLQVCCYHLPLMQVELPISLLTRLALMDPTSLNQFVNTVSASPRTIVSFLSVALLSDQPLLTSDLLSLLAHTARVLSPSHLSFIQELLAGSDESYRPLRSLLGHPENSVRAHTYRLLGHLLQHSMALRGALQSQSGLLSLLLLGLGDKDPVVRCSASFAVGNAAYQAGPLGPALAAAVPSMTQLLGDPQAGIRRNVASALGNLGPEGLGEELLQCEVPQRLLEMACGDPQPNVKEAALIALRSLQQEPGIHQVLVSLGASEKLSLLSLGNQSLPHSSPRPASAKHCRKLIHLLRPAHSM", "test": "Inhibition of wild-type human partial length STK36 (M1 to T271 residues) expressed in bacterial expression system at 1 uM by Kinomescan method relative to control"}, "[13]": {"test": "Aqueous kinetic solubility of the compound at pH 6.8 by shake flask assay", "assay_type": "physicochemical", "conditions": "read-out: Kinetic_solubility"}, "[14]": {"biological_target": "Focal adhesion kinase 1 (Homo sapiens) (UniProt Q05397)", "test": "Inhibition of wild-type human partial length FAK (D402 to R696 residues) expressed in bacterial expression system at 1 uM by Kinomescan method relative to control"}, "[15]": {"biological_target": "Serine/threonine-protein kinase tousled-like 2 (Homo sapiens) (UniProt Q86UE8)", "test": "Inhibition of wild-type human partial length TLK2 (E424 to N749 residues) expressed in bacterial expression system at 1 uM by Kinomescan method relative to control"}, "[16]": {"biological_target": "Interleukin-1 receptor-associated kinase 1 (Homo sapiens) (UniProt P51617)", "test": "Inhibition of wild-type human partial length IRAK1 (R194 to S712 residues) expressed in mammalian expression system at 1 uM by Kinomescan method relative to control"}, "[17]": {"biological_target": "Serine/threonine-protein kinase Nek7 (Homo sapiens) (UniProt Q8TDX7)", "test": "Inhibition of wild-type human full length NEK7 (M1 to S302 residues) expressed in bacterial expression system at 1 uM by Kinomescan method relative to control"}, "[18]": {"biological_target": "Ephrin type-B receptor 6 (Homo sapiens) (UniProt O15197)", "sequence (O15197 whole entry, the tested form may be a part)": "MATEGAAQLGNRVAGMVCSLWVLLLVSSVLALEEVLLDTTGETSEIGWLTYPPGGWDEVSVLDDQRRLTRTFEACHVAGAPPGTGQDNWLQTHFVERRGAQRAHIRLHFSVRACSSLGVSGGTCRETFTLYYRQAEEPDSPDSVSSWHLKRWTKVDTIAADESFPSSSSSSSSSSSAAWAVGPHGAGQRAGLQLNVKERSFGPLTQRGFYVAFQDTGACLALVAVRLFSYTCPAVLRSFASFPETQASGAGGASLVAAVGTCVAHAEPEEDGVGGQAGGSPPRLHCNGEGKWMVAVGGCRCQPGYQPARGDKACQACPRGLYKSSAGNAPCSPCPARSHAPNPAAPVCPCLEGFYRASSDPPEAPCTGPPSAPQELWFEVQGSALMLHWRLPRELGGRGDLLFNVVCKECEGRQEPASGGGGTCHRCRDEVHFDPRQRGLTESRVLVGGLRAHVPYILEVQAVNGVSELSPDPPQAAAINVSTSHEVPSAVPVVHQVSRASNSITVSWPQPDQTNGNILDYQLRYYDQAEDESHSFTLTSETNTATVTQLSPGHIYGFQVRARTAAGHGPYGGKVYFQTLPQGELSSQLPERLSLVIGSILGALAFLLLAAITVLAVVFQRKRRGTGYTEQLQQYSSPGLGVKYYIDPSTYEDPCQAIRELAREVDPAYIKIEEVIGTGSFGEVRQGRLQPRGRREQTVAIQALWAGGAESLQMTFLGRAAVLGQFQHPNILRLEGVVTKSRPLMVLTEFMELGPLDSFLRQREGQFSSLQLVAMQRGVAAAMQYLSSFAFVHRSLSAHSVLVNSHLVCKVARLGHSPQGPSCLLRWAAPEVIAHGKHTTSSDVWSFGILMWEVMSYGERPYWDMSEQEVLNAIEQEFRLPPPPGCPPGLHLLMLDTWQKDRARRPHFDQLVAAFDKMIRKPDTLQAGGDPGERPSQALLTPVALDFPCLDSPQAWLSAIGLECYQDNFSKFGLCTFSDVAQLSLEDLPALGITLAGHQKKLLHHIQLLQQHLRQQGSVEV", "test": "Inhibition of wild-type human partial length EPHB6 (Q634 to P948 residues) expressed in mammalian expression system at 1 uM by Kinomescan method relative to control"}, "[19]": {"biological_target": "Serine/threonine-protein kinase 36 (Homo sapiens) (UniProt Q9NRP7)", "test": "Inhibition of wild-type human partial length STK36 (M1 to T271 residues) expressed in bacterial expression system at 10 uM by Kinomescan method relative to control"}, "[20]": {"biological_target": "Dual specificity mitogen-activated protein kinase kinase 2 (Homo sapiens) (UniProt P36507)", "test": "Inhibition of wild-type human full length MEK2 (M1 to V400 residues) expressed in mammalian expression system at 10 uM by Kinomescan method relative to control"}, "[21]": {"biological_target": "Ephrin type-A receptor 4 (Homo sapiens) (UniProt P54764)", "test": "Inhibition of wild-type human partial length EPHA4 (T601 to R897 residues) expressed in bacterial expression system at 10 uM by Kinomescan method relative to control"}, "[22]": {"biological_target": "LIM domain kinase 2 (Homo sapiens) (UniProt P53671)", "test": "Inhibition of wild-type human full length LIMK2 (M1 to P638 residues) expressed in bacterial expression system at 10 uM by Kinomescan method relative to control"}, "[23]": {"biological_target": "Mitogen-activated protein kinase 8 (Homo sapiens) (UniProt P45983)", "test": "Inhibition of wild-type human full length JNK1 (M1 to Q384 residues) expressed in mammalian expression system at 10 uM by Kinomescan method relative to control"}, "[24]": {"biological_target": "SRSF protein kinase 2 (Homo sapiens) (UniProt P78362)", "test": "Inhibition of wild-type human full length SRPK2 (M1 to S686 residues) expressed in bacterial expression system at 10 uM by Kinomescan method relative to control"}, "[25]": {"biological_target": "Serine/threonine-protein kinase MRCK gamma (Homo sapiens) (UniProt Q6DT37)", "test": "Inhibition of wild-type human partial length DMPK2 (S46 to S408 residues) expressed in bacterial expression system at 10 uM by Kinomescan method relative to control"}, "[26]": {"biological_target": "NT-3 growth factor receptor (Homo sapiens) (UniProt Q16288)", "test": "Inhibition of wild-type human partial length TRKC (Q531 to G825 residues) expressed in mammalian expression system at 10 uM by Kinomescan method relative to control"}, "[27]": {"biological_target": "Mitogen-activated protein kinase kinase kinase kinase 2 (Homo sapiens) (UniProt Q12851)", "test": "Inhibition of wild-type human partial length MAP4K2 (M1 to G318 residues) expressed in mammalian expression system at 10 uM by Kinomescan method relative to control"}, "[28]": {"biological_target": "Casein kinase II subunit alpha (Homo sapiens) (UniProt P68400)", "test": "Inhibition of wild-type human full length CSNK2A1 (M1 to Q391 residues) expressed in mammalian expression system at 10 uM by Kinomescan method relative to control"}}}
{"compound": "O=C(Nc1cccc([C@@H]2CN(c3ncnc4[nH]ccc34)CCN2CCO)c1)Nc1c(F)cccc1N1CCCC1", "values": [{"measurement": "inhibition", "setting": "[1]", "value": 100, "unit": "%"}, {"measurement": "inhibition", "setting": "[2]", "value": 74, "unit": "%"}, {"measurement": "inhibition", "setting": "[3]", "value": 95, "unit": "%"}, {"measurement": "inhibition", "setting": "[4]", "value": 96, "unit": "%"}, {"measurement": "inhibition", "setting": "[5]", "value": 100, "unit": "%"}, {"measurement": "inhibition", "setting": "[6]", "value": 76, "unit": "%"}, {"measurement": "inhibition", "setting": "[7]", "value": 33, "unit": "%"}, {"measurement": "inhibition", "setting": "[8]", "value": 96, "unit": "%"}, {"measurement": "inhibition", "setting": "[9]", "value": 47, "unit": "%"}, {"measurement": "AUC(0-inf)", "setting": "[10]", "value": 1890, "unit": "ng·h/mL"}, {"measurement": "inhibition", "setting": "[11]", "value": 64, "unit": "%"}, {"measurement": "inhibition", "setting": "[12]", "value": 100, "unit": "%"}, {"measurement": "solubility kinetic", "setting": "[13]", "value": 8, "unit": "µg/mL"}, {"measurement": "inhibition", "setting": "[14]", "value": 90, "unit": "%"}, {"measurement": "inhibition", "setting": "[15]", "value": 99, "unit": "%"}, {"measurement": "inhibition", "setting": "[16]", "value": 92, "unit": "%"}, {"measurement": "inhibition", "setting": "[17]", "value": 92, "unit": "%"}, {"measurement": "inhibition", "setting": "[18]", "value": 100, "unit": "%"}]}
{"compound": "O=C(Nc1cccc([C@H]2CCCN(c3ncnc4[nH]ccc34)C2)c1)Nc1ccccc1N1CCCC1", "values": [{"measurement": "inhibition", "setting": "[19]", "value": 90, "unit": "%"}, {"measurement": "inhibition", "setting": "[20]", "value": 17, "unit": "%"}, {"measurement": "inhibition", "setting": "[21]", "value": 98, "unit": "%"}, {"measurement": "inhibition", "setting": "[22]", "value": 100, "unit": "%"}, {"measurement": "inhibition", "setting": "[23]", "value": 42, "unit": "%"}, {"measurement": "inhibition", "setting": "[24]", "value": 53, "unit": "%"}, {"measurement": "inhibition", "setting": "[25]", "value": 62, "unit": "%"}, {"measurement": "inhibition", "setting": "[26]", "value": 36, "unit": "%"}, {"measurement": "inhibition", "setting": "[27]", "value": 61, "unit": "%"}, {"measurement": "inhibition", "setting": "[28]", "value": 67, "unit": "%"}]}
